# Entries after “also recorded” stand apart in the source; their conditions may differ.
# How the values were obtained:
# [1] = tested on: primary cortical neuronal cultures; assay: In vitro ischemia / oxygen-glucose deprivation (OGD) model, neurons; assay type: cell-based, rat; details: for neuroprotection when added for 15 minutes after OGD: FIGS. 31, 20, 22, 1 μM and 5 μM in FIG. 31; for neuroprotection when added post-in vitro ischemia/OGD: added after anaerobic incubation until experiment end (FIGS. 3b, 16, 17)
# [2] = tested on: neuroblastoma cell line (SH-SY5Y); assay: In vitro ischemia model, SH-SY5Y cells; assay type: cell-based; details: 5 μM during/2.5 μM post (FIG. 3c)
# Procedure: (§1) A brain endothelial cell line (bEND3) and a neuroblastoma cell line (SH-SY5Y) were also used for some experiments. bEND3 and SH-SY5Y cells were cultured using standard techniques in DMEM plus 5 or 15% foetal calf serum. Rat primary astrocytes were obtained and cultured as described for cortical neurons except DMEM plus 10% foetal calf serum was used instead of Neurobasal/2% B27, and the mitotic inhibitor, cytosine arabinofuraNOside was not used.
# (§2) The in vitro ischemia model was also used for bEND3 cells, SH-SY5Y cells, and astrocytes. For bEND3 cells anaerobic incubation was extended to 2-3 hours and upon removal from the anaerobic incubator, 60 μl of DMEM/2% FCS was added to wells. […]
# (§3) Twenty-four hours after insult, neuronal cultures were examined by light microscopy for qualitative assessment of neuronal cell viability. Neuronal viability was quantitatively measured by 3-(4,5,dimethyliazol-2-yl)-5-(3-carboxymethoxy-phenyl)-2-(4-sulfophenyl)-2H-tetrazolium salt (MTS) assay (Promega, Australia). The MTS assay measures the cellular conversion of the tetrazolium salt to a water-soluble brown formazan salt, which is detected spectrophotometrically at 490 nm. MTS absorbance data were converted to reflect proportional cell viability relative to both the untreated and treated controls, with the untreated control taken as 100% viability, and presented as mean±SEM. […]
# [3] = tested on: permanent middle cerebral artery occlusion (MCAO) stroke model; assay: Rat permanent middle cerebral artery occlusion (MCAO) stroke model; assay type: in vivo; details: for neuroprotective activity in vivo: 1 μmol/kg intravenously 30 min post-MCAO
# Procedure: Administration of peptide (DR9: rrrrrrrrr-NH2; R12, R15, R18, protamine sulphate; protamine) or vehicle (saline: 0.9% NaCl) treatment solution was performed at 30 min post-MCAO. The peptide treatment comprised DR9 in saline (600 μl) to provide an intravenous loading dose of 1 μmol/kg or 1000 nmol/kg given over 5-6 min via the right jugular vein.
# This study was approved by the Animal Ethics Committee of the University of Western Australia. Male Sprague Dawley rats weighing 270 g to 350 g were kept under controlled housing conditions with 12 hour light-dark cycle with free access to food and water. Experimental animals were fasted overnight and subjected to permanent middle cerebral artery occlusion (MCAO) as follows.
# Anaesthesia was induced with 4% isoflurane and a 2:1 mix of N2O and O2 via mask. Anaesthesia was maintained at 1.7-2% isoflurane. Cerebral blood flow (CBF) was monitored continuously using laser Doppler flowmetry (Blood FlowMeter, AD Instruments, Sydney, Australia). The probe was located 1 mm caudal and 4 mm lateral (right) to the bregma. A cannula was inserted in the right femoral artery to continuously monitor blood pressure and to provide samples for blood glucose and blood gas readings. Blood glucose was measured using a glucometer (MediSense Products, Abbott Laboratories, Bedford, Mass., USA) and blood gases were measured using a blood gas analyser (ABL5, Radiometer, Copenhagen, Denmark). Blood pressure was maintained at 80-100 mmHg. During surgery, rectal temperature was maintained at 37±0.5° C. and warming applied with a fan heater when necessary. For intravenous infusions, a length of PVC line primed with heparinised saline was tied in place in the right jugular vein, then externalised through a dorsal mid-scapular incision to a tether/swivel system (Instech Laboratories, Philadelphia, USA) designed to permit free movement.
# The right common carotid artery (CCA) was exposed via a ventral neck incision. […] The isolated section of the ECA was ligated and cauterised to create a stump. The carotid body was removed and the pterygopalatine artery was ligated. A 4-0 nylon monofilament with a 0.39 mm diameter silicone tip (Doccol, Redlands, Calif., USA) was inserted through the ECA stump into the CCA and advanced rostrally into the internal carotid artery (ICA) until the laser Doppler flowmetry recorded a >30% decrease from baseline of cerebral blood flow. The monofilament was secured in two places (at the base of the ECA stump and on the ICA) for the remainder of the experiment. Animals were given post-operative analgesia consisting of pethidine (3 mg/kg intramuscular) and bupivacaine (1.5 mg/kg subcutaneously) at head and leg incision sites.
# Post-surgery animals were allowed to recover in a climate-controlled chamber and their core body temperature monitored and maintained at 37±0.5° C. by a cooling/heating fan when required for 3-4 hours.
# Animals were sacrificed 24 hours post-MCAO with intra-peritoneal injections of sodium pentobarbitone (900 mg/kg). […] Slices were scanned and images were analysed by an operator blind to treatment status using ImageJ 3rd edition (NIH, USA). The total infarct volume was determined by adding the areas of infarcted tissue on both sides of the 2 mm sections. These measured areas were multiplied by half slice thickness (1 mm), and corrected for cerebral oedema by multiplying the ratio of affected to normal hemisphere areas. […]
# primary rat astrocytes = assay: In vitro ischemia/OGD model, astrocytes; assay type: cell-based; details: 2 μM, 15 min prior to OGD (FIG. 42)
# Procedure: as §1, §2, §3
Compound,neuroprotection when added for 15 minutes after OGD [1],"IC50 ([1]; Table 3, from FIG. 3a, peptide during ischemia and at 50% dose after, viability 24 h, MTS, read-out: IC50: In vitro ischemia model) [µM]",neuroprotection when added post-in vitro ischemia/OGD [1],protection of SH-SY5Y cells (cell death after in vitro ischemia) [2],neuroprotective activity in vivo [3],astrocyte cell death after in vitro ischemia (primary rat astrocytes),"efficacy at higher concentrations, added post-in vitro ischemia ([1]; FIG. 3b)","neuroprotection, peptide for 10 minutes, 1 to 3 hours prior to OGD ([1]; FIG. 32)","reduction of infarct volume (brain damage) ([3]; 1 μmol/kg IV 30 min post-MCAO, infarct volume 24 h post-MCAO (FIGS. 5, 27))"
N=C(N)NCCC[C@H](NC(=O)[C@H](CCCNC(=N)N)NC(=O)[C@H](CCCNC(=N)N)NC(=O)[C@H](CCCNC(=N)N)NC(=O)[C@H](CCCNC(=N)N)NC(=O)[C@H](CCCNC(=N)N)NC(=O)[C@H](CCCNC(=N)N)NC(=O)[C@H](CCCNC(=N)N)NC(=O)[C@@H](N)CCCNC(=N)N)C(=O)O [Peptide R9],not,6,displayed neuroprotective effects; also recorded: effective,reduced; also recorded: able to protect,possessed neuroprotective activity in vivo,,,,
H-RRRRRRRRRRRRRRRRRR-OH [Peptide R18],Neuroprotection is displayed,,displayed neuroprotective effects; also recorded: effective,,possessed neuroprotective activity in vivo,reduced astrocyte cell death,reduced efficacy,effective,approximately 20%
